Where two headings read alike, the source gives them in different places.
Assays:
[1] = test system: Influenza Ann Arbor virus; test: Chemoprophylaxis of Influenza Ann Arbor (A1) virus infection in mice; type: in vivo, mouse
[2] = test system: Influenza B Massachusetts virus; test: Chemoprophylaxis of Influenza B Massachusetts virus infection in mice; type: in vivo, mouse; conditions: oral
Experimental: The activity of four compounds on Influenza B Mass. was tested in mice.
A portion of a commercially available sample of amantadine was recrystallized from isopropanol. The activity of the material against Influenza B Mass. was tested for the sample as obtained, the recrystallized portion, and the mother liquor obtained from recrystallizing the portion.

[3] = test system: Influenza PR 8 virus; test: Chemoprophylaxis of Influenza PR 8 virus infection in mice; type: in vivo, mouse; conditions: oral
[4] = test system: Herpes virus; type: in vivo, mouse; conditions: oral
[5] = test system: Herpes virus; test: Herpes virus in eggs (chick embryo survival); type: in vivo, chicken eggs; conditions: all doses
[6] = test system: Vaccinia virus; type: cell-based, fertile eggs; conditions: various concentrations
[7] = test system: Influenza A PR8 virus; design: dose or concentration left out as unconfirmed; conditions: cited from earlier work
[8] = test system: virus infections; test: Antiviral screening program, several viruses; conditions: mouse, in vivo
[9] = subcutaneous, total dose .05 μg
[10] = subcutaneous, total dose 500 μg
[11] = subcutaneous, total dose .00005 μg
[12] = subcutaneous, total dose .0005 μg
[13] = subcutaneous, total dose .005 μg

NNC(N)=O [semicarbazide]
total number of survivors ([1]; oral, four dose levels): 10 | Survivors [1, 9]: 0 | No. animals surviving when 100% controls are dead ([2]; total dose .000005 μg): 0 | Survivors ([2]; total dose .000005 μg): 0 | No. animals surviving when 100% controls are dead ([2]; total dose .00005 μg): 0 | Survivors ([2]; total dose .00005 μg): 0 | No. animals surviving when 100% controls are dead ([2]; total dose .0005 μg): 1 | Survivors ([2]; total dose .0005 μg): 0 | No. animals surviving after 5 days ([2]; total dose .005 μg): 6 | Survivors ([2]; total dose .005 μg): 0 | No. animals surviving after 5 days ([2]; total dose .05 μg): 6 | No. animals surviving when 100% controls are dead ([2]; total dose .05 μg): 1 | Survivors ([2]; total dose .05 μg): 0 | No. animals surviving after 5 days ([2]; total dose .5 μg): 4 | No. animals surviving when 100% controls are dead ([2]; total dose .5 μg): 1 | Survivors ([2]; total dose .5 μg): 0 | Survivors ([3]; total dose .000005 μg): 0 | No. animals surviving when 18/20 of controls are dead ([3]; total dose .00005 μg): 0 | Survivors ([3]; total dose .00005 μg): 0 | No. animals surviving when 18/20 of controls are dead ([3]; total dose .0005 μg): 0 | Survivors ([3]; total dose .0005 μg): 0 | No. animals surviving when 18/20 of controls are dead ([3]; total dose .005 μg): 0 | Survivors ([3]; total dose .005 μg): 0 | No. animals surviving when 18/20 of controls are dead ([3]; total dose .05 μg): 4 | Survivors ([3]; total dose .05 μg): 4 | Survivors ([4]; total dose .000005 μg): 0 | Survivors ([4]; total dose .5 μg): 0 | No. Living Longer Than Controls, total [5]: 10 | effect on pox formation on the membrane [6]: No effect on pox formation on the membrane could be observed

CC(C=NNC(=N)N)=NNC(=N)N [methyl-GAG, Methylgloxal-bis-guanylhydrazone]
inhibition ([7]; lower limit): Ninety | Toxicity ([7]; upper limit): toxic

NN [hydrazine, hydrate]
No. animals surviving after 5 days ([1]; oral, total dose 5 μg): 4 | Survivors ([1]; oral, total dose 5 μg): 0 | No. animals surviving after 5 days ([1]; oral, total dose 50 μg): 4 | Survivors ([1]; oral, total dose 50 μg): 0 | No. animals surviving after 5 days ([1]; oral, total dose 500 μg): 5 | Survivors ([1]; oral, total dose 500 μg): 0 | No. animals surviving after 5 days ([1]; oral, total dose .00005 μg): 6 | Survivors ([1]; oral, total dose .00005 μg): 0 | No. animals surviving after 5 days ([1]; oral, total dose .0005 μg): 6 | Survivors ([1]; oral, total dose .0005 μg): 0 | No. animals surviving after 5 days ([1]; oral, total dose .005 μg): 3 | Survivors ([1]; oral, total dose .005 μg): 0 | No. animals surviving after 5 days ([1]; oral, total dose .05 μg): 3 | Survivors ([1]; oral, total dose .05 μg): 1 | No. animals surviving after 5 days ([1]; oral, total dose .5 μg): 6 | Survivors ([1]; oral, total dose .5 μg): 0 | No. animals surviving after 5 days ([1]; subcutaneous, total dose 5 μg): 6 | No. animals surviving after 7 days ([1]; subcutaneous, total dose 5 μg): 6 | Survivors ([1]; subcutaneous, total dose 5 μg, hydrate): 3 | No. animals surviving after 5 days ([1]; subcutaneous, total dose 50 μg): 4 | No. animals surviving after 7 days ([1]; subcutaneous, total dose 50 μg): 7 | No. animals surviving after 5 days [1, 10]: 3 | No. animals surviving after 7 days [1, 10]: 6 | Survivors [1, 10]: 0 | No. animals surviving after 5 days [1, 11]: 1 | No. animals surviving after 7 days [1, 11]: 1 | Survivors [1, 11]: 0 | No. animals surviving after 5 days [1, 12]: 7 | No. animals surviving after 7 days [1, 12]: 5 | No. animals surviving after 5 days [1, 13]: 4 | No. animals surviving after 7 days [1, 13]: 3 | No. animals surviving after 5 days [1, 9]: 6 | No. animals surviving after 7 days [1, 9]: 4 | No. animals surviving after 5 days ([1]; subcutaneous, total dose .5 μg): 5 | No. animals surviving after 7 days ([1]; subcutaneous, total dose .5 μg): 7 | No. animals surviving after 10 days ([3]; total dose 5 μg): 1 | Survivors ([3]; total dose 5 μg): 0 | No. animals surviving after 10 days ([3]; total dose 50 μg): 1 | Survivors ([3]; total dose 50 μg): 0 | No. animals surviving after 7 days ([3]; total dose .000005 μg): 4 | No. animals surviving after 7 days ([3]; total dose .00005 μg): 0 | No. animals surviving when 18/20 of controls are dead ([3]; total dose .00005 μg): 4 | No. animals surviving after 10 days ([3]; total dose .0005 μg): 1 | No. animals surviving when 18/20 of controls are dead ([3]; total dose .0005 μg): 3 | Survivors ([3]; total dose .0005 μg, hydrate): 1 | No. animals surviving after 7 days ([3]; total dose .005 μg): 5 | No. animals surviving after 10 days ([3]; total dose .005 μg): 3 | No. animals surviving when 18/20 of controls are dead ([3]; total dose .005 μg): 1 | No. animals surviving after 10 days ([3]; total dose .05 μg): 0 | No. animals surviving when 18/20 of controls are dead ([3]; total dose .05 μg): 1 | No. animals surviving after 10 days ([3]; total dose .5 μg): 1 | No. animals surviving when 18/20 of controls are dead ([3]; total dose .5 μg): 1 | Survivors ([3]; total dose .5 μg): 1 | activity (in words) [8]: active on Influenza PR 8, Vaccinia in the mouse tail, Herpes in eggs, Herpes in mice, and Influenza Ann Arbor
